Experimental data: ChEMBL document CHEMBL3400030, “Synthesis and biological evaluation of nonionic substrate mimics of UDP-Galp as candidate inhibitors of UDP galactopyranose mutase (UGM)” (Bioorg Med Chem Lett, 2015)

Columns and labels:
[1] = system: Mycobacterium tuberculosis; experiment: Inhibition of Mycobacterium tuberculosis UGM assessed as inhibition of conversion of UDP-Galf into UDP-Galp at 500 uM by HPLC method
[2] = system: Mycobacterium tuberculosis; experiment: Inhibition of Mycobacterium tuberculosis UGM assessed as conversion of UDP-Galf into UDP-Galp at 500 uM by HPLC method; parameters: scale not given: the % may be the effect or the level left

SMILES	inhibition [1] [%]	Activity [2] [%]
O=c1ccn(C[C@@H](O)[C@@H](O)[C@H](O)[C@H](CO)O[C@H]2O[C@H](CO)[C@H](O)[C@H](O)[C@H]2O)c(=O)[nH]1	30	47
O=c1ccn(C[C@@H](O)[C@@H](O)[C@H](O)[C@H](CO)O[C@@H]2O[C@H](CO)[C@H](O)[C@H](O)[C@H]2O)c(=O)[nH]1	28	39
